In PubChem BioAssay AID330 (DTP/NCI, 2004):
Where “and” joins values, the source holds several entries; their conditions need not be identical. Equal values may be shown once. Toxic doses and inconclusive results are not listed. How the source made its calls: active means survival T/C of 150% or more; inactive means T/C below 125% in these data. Square brackets hold non-standard residues; d marks the D form. Peptide text beside a SMILES is read from it. * marks the point of attachment. Cbz = O=C(OCc1ccccc1)*; Nva = CCC[CH](N)C(=O)O

System: P388 leukemia ip, CD2F1 mice, survival T/C
Assay: NCI In Vivo Anticancer Drug Screen. Data for tumor model P388 Leukemia (intraperitoneal) in CD2F1 (CDF1) mice
Conditions: endpoint: median survival time, higher = longer survival
Outline: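 Mice carrying the transplanted tumor received test compound or vehicle. Survival was recorded in each group, and the value is the treated-group measurement divided by that of the vehicle-treated control group.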

[1] = dose: 100.0 mg/kg/injection, schedule: Q01DX009 (ip), vehicle: Klucel (hydroxypropylcellulose) (HPC)
[2] = dose: 200.0 mg/kg/injection, schedule: Q01DX009 (ip), vehicle: Klucel (hydroxypropylcellulose) (HPC)
[3] = dose: 15.0 mg/kg/injection, schedule: Q01DX005 (ip), vehicle: saline
[4] = dose: 30.0 mg/kg/injection, schedule: Q01DX005 (ip), vehicle: saline
[5] = dose: 100.0 mg/kg/injection, schedule: Q01DX001 (ip), vehicle: Klucel (hydroxypropylcellulose) (HPC)
[6] = dose: 200.0 mg/kg/injection, schedule: Q01DX001 (ip), vehicle: Klucel (hydroxypropylcellulose) (HPC)
[7] = dose: 400.0 mg/kg/injection, schedule: Q01DX001 (ip), vehicle: Klucel (hydroxypropylcellulose) (HPC)
[8] = dose: 50.0 mg/kg/injection, schedule: Q01DX005 (ip), vehicle: saline with Tween-80
[9] = dose: 100.0 mg/kg/injection, schedule: Q01DX005 (ip), vehicle: saline with Tween-80
[10] = dose: 200.0 mg/kg/injection, schedule: Q01DX005 (ip), vehicle: saline with Tween-80
[11] = dose: 50.0 mg/kg/injection, schedule: Q01DX009 (ip), vehicle: saline with Tween-80
[12] = dose: 100.0 mg/kg/injection, schedule: Q01DX009 (ip), vehicle: saline with Tween-80
[13] = dose: 200.0 mg/kg/injection, schedule: Q01DX009 (ip), vehicle: saline with Tween-80
[14] = dose: 50.0 mg/kg/injection, schedule: Q01DX009 (ip), vehicle: Klucel (hydroxypropylcellulose) (HPC)
[15] = dose: 100.0 mg/kg/injection, schedule: Q04DX003 (ip), vehicle: Klucel (hydroxypropylcellulose) (HPC)
[16] = dose: 200.0 mg/kg/injection, schedule: Q04DX003 (ip), vehicle: Klucel (hydroxypropylcellulose) (HPC)
[17] = dose: 400.0 mg/kg/injection, schedule: Q04DX003 (ip), vehicle: Klucel (hydroxypropylcellulose) (HPC)
[18] = dose: 12.5 mg/kg/injection, schedule: Q01DX009 (ip), vehicle: saline with Tween-80
[19] = dose: 25.0 mg/kg/injection, schedule: Q01DX009 (ip), vehicle: saline with Tween-80
[20] = dose: 60.0 mg/kg/injection, schedule: Q01DX005 (ip), vehicle: saline with Tween-80
[21] = dose: 120.0 mg/kg/injection, schedule: Q01DX005 (ip), vehicle: saline with Tween-80
[22] = dose: 240.0 mg/kg/injection, schedule: Q01DX005 (ip), vehicle: saline with Tween-80

Measured: T/C

CCc1cc(Cc2cc(CC)cc(C(C)(C)C)c2O)c(O)c(C(C)(C)C)c1
inactive: [1] 107 % of control | [2] 90 % of control | dose: 400.0 mg/kg/injection, schedule: Q01DX009 (ip), vehicle: Klucel (hydroxypropylcellulose) (HPC) 104 % of control and 90 % of control

CS/C(=C\c1ccc2ccccc2[n+]1C)N1CCN(CCCO)CC1
inactive: [3] 104 % of control | [4] 95 % of control | dose: 60.0 mg/kg/injection, schedule: Q01DX005 (ip), vehicle: saline 95 % of control

c1cc2n[pH]nc2cn1 (stereo not given)
inactive: [3] 120 % of control | [4] 107 % of control

Cc1oc(-c2ccc(F)cc2)nc1C(N)=O
inactive: [5] 97 % of control | [6] 94 % of control | [7] 101 % of control

O=C(c1ccc(CSc2ccc(Cl)cc2)o1)N1CCOCC1
inactive: [8] 99 % of control | [9] 101 % of control | [10] 91 % of control

CC(=O)NC(CCO)C(N)=O (stereo not given)
inactive: dose: 12.5 mg/kg/injection, schedule: Q01DX009 (ip), vehicle: water 99 % of control and 100 % of control | dose: 25.0 mg/kg/injection, schedule: Q01DX009 (ip), vehicle: water 106 % of control | dose: 50.0 mg/kg/injection, schedule: Q01DX009 (ip), vehicle: water 107 % of control and 120 % of control | dose: 100.0 mg/kg/injection, schedule: Q01DX009 (ip), vehicle: water 111 % of control and 94 % of control | dose: 200.0 mg/kg/injection, schedule: Q01DX009 (ip), vehicle: water 100 % of control and 101 % of control

Cn1c(Cl)c(/C=C2/N=C(c3ccccc3)OC2=O)c2ccccc21
inactive: [5] 94 % of control | [6] 94 % of control | [7] 94 % of control

Cc1ccc(N2CC(=O)N3CCCN3C(=O)C2)cc1
inactive: dose: 6.25 mg/kg/injection, schedule: Q01DX005 (ip), vehicle: saline with Tween-80 98 % of control | dose: 12.5 mg/kg/injection, schedule: Q01DX005 (ip), vehicle: saline with Tween-80 100 % of control | dose: 25.0 mg/kg/injection, schedule: Q01DX005 (ip), vehicle: saline with Tween-80 102 % of control

S=C1SCN(Cc2ccccc2)CN1Cc1ccccc1
inactive: [11] 100 % of control | [12] 93 % of control | [13] 89 % of control

O=C(Nc1cccc2ccccc12)OC1CC2CCC1C2Cl (stereo not given)
inactive: dose: 25.0 mg/kg/injection, schedule: Q01DX009 (ip), vehicle: other 93 % of control | dose: 50.0 mg/kg/injection, schedule: Q01DX009 (ip), vehicle: other 87 % of control | dose: 100.0 mg/kg/injection, schedule: Q01DX009 (ip), vehicle: other 87 % of control | dose: 200.0 mg/kg/injection, schedule: Q01DX009 (ip), vehicle: other 88 % of control | dose: 400.0 mg/kg/injection, schedule: Q01DX009 (ip), vehicle: other 91 % of control

C[C@H]1CC[C@@H]2[C@@H](C)[C@H]3[C@H](C[C@H]4[C@@H]5CC=C6C[C@@H](O)CC[C@]6(C)[C@H]5C[C@H](O)[C@]34C)N2C1
inactive: dose: 25.0 mg/kg/injection, schedule: Q01DX005 (ip), vehicle: Klucel (hydroxypropylcellulose) (HPC) 101 % of control and 105 % of control

O=C(O)c1ccc2c3c(ncnc13)-c1ccccc1C2=O
inactive: dose: 6.25 mg/kg/injection, schedule: Q01DX009 (ip), vehicle: Klucel (hydroxypropylcellulose) (HPC) 103 % of control | dose: 12.5 mg/kg/injection, schedule: Q01DX009 (ip), vehicle: Klucel (hydroxypropylcellulose) (HPC) 111 % of control and 96 % of control | dose: 25.0 mg/kg/injection, schedule: Q01DX009 (ip), vehicle: Klucel (hydroxypropylcellulose) (HPC) 112 % of control and 96 % of control | [14] 105 % of control and 109 % of control and 111 % of control | [1] 100 % of control | [2] 109 % of control

CCc1c(CNc2ccc(Cl)c(Cl)c2)ccc2nc(N)nc(N)c12
inactive: dose: 12.5 mg/kg/injection, schedule: Q01DX005 (ip), vehicle: Klucel (hydroxypropylcellulose) (HPC) 109 % of control

O=C1/C(=C/N2CCN(c3ccccc3)CC2)Cc2c(F)cccc21
inactive: [15] 100 % of control | [16] 97 % of control | [17] 100 % of control

CCCC(N)C(=O)NC(C(=O)O)C(C)C (stereo not given) (H-[Nva]-Val-OH; configuration not given here)
inactive: dose: 50.0 mg/kg/injection, schedule: Q01DX009 (ip), vehicle: saline 100 % of control | dose: 100.0 mg/kg/injection, schedule: Q01DX009 (ip), vehicle: saline 103 % of control | dose: 200.0 mg/kg/injection, schedule: Q01DX009 (ip), vehicle: saline 100 % of control

Clc1ccc(C(c2ccc(Cl)cc2)C(Cl)(Cl)Cl)cc1
inactive: dose: 1.56 mg/kg/injection, schedule: Q01DX009 (ip), vehicle: saline with Tween-80 105 % of control | dose: 3.12 mg/kg/injection, schedule: Q01DX009 (ip), vehicle: saline with Tween-80 98 % of control | dose: 6.25 mg/kg/injection, schedule: Q01DX009 (ip), vehicle: saline with Tween-80 100 % of control | [18] 98 % of control | [11] 99 % of control

COc1ccc(OC(=O)/C=C/c2ccccc2)cc1
inactive: dose: 85.0 mg/kg/injection, schedule: Q04DX002 (ip), vehicle: saline with Tween-80 102 % of control

CCOP(=S)(O/C(=C/Cl)c1cc(Cl)c(Cl)cc1Cl)c1ccccc1 (stereo not given)
inactive: [14] 92 % of control | [1] 95 % of control | [2] 96 % of control

CSCCC(NC(=O)C(Cc1ccccc1)NC(=O)OCc1ccccc1)C(=O)O (stereo not drawn) (Cbz-Phe-Met-OH; configuration not given here)
inactive: [8] 104 % of control | [9] 105 % of control | [10] 97 % of control

CCOC(=O)Nc1ccc(Cl)cc1C(=O)c1ccccc1
inactive: dose: 45.0 mg/kg/injection, schedule: Q01DX009 (ip), vehicle: saline with Tween-80 102 % of control | dose: 90.0 mg/kg/injection, schedule: Q01DX009 (ip), vehicle: saline with Tween-80 100 % of control | dose: 180.0 mg/kg/injection, schedule: Q01DX009 (ip), vehicle: saline with Tween-80 96 % of control

COc1cc2nc3cc([N+](=O)[O-])ccc3c(Cl)c2cc1OC
inactive: [8] 99 % of control | [9] 101 % of control | [10] 89 % of control

CCCC(C)(O)/C(C)=N/O (stereo not given)
inactive: [18] 98 % of control | [19] 101 % of control | [11] 104 % of control and 87 % of control | [13] 90 % of control

CCC#CCC1(CC#CCC)CC1C (stereo not given)
inactive: [8] 100 % of control | [9] 99 % of control | [10] 107 % of control

O=C1c2ccccc2C(=O)c2c3c(cc([N+](=O)[O-])c21)OCO3
inactive: [20] 100 % of control | [21] 89 % of control | [22] 87 % of control

N[C@H](Cc1c[nH]c2ccccc12)C(=O)O
inactive: [12] 98 % of control | [13] 103 % of control | dose: 400.0 mg/kg/injection, schedule: Q01DX009 (ip), vehicle: saline with Tween-80 103 % of control

COc1ccc(C(Cc2ccccc2)C2(O)C(=O)NC(=O)NC2=O)cc1 (stereo not given)
inactive: [20] 103 % of control | [21] 99 % of control | [22] 98 % of control

C(=N\NC1=NCCN1)/c1ccc(-c2cn3cc(/C=N/NC4=NCCN4)ccc3n2)cc1
inactive: [20] 112 % of control

CCCCN(CCCC)CCOc1c[nH]c(=O)[nH]c1=O
inactive: dose: 50.0 mg/kg/injection, schedule: Q01DX005 (ip), vehicle: Klucel (hydroxypropylcellulose) (HPC) 103 % of control | dose: 100.0 mg/kg/injection, schedule: Q01DX005 (ip), vehicle: Klucel (hydroxypropylcellulose) (HPC) 106 % of control

C=CCSC(=S)Nc1nc2ccc(C)cc2s1
inactive: [15] 96 % of control | [16] 98 % of control | [17] 97 % of control

O=[N+]([O-])c1cnc(/C=N/N2CCN(/N=C/c3ncc([N+](=O)[O-])[nH]3)CC2)[nH]1
inactive: [18] 90 % of control | [19] 89 % of control | [11] 88 % of control
